According to article PMC12220852, “An adamantane‐based ligand as a novel chemical tool for thermosensory TRPM8 channel therapeutic modulation” (The Febs Journal, 2025):
Entries after “also recorded” stand apart in the source; their conditions may differ. Read-outs that look alike come from different tables or passages of the source.

Legend:
[1] = target: T1, recombinant human TRPM8 stably expressed in HEK293 cells (hTRPM8) (Homo sapiens, UniProt Q7Z2W7); test: Ca2+ microfluorimetry screen for agonist/antagonist activity in hTRPM8-HEK293 cells; assay type: cell-based; details: agonists vs WS-12, antagonists vs WS-12 response, read-out: Efficacy (percentage of maximal activation or blockade)
T1 construct: expressed in transfected cells
T1 sequence (Q7Z2W7 whole entry): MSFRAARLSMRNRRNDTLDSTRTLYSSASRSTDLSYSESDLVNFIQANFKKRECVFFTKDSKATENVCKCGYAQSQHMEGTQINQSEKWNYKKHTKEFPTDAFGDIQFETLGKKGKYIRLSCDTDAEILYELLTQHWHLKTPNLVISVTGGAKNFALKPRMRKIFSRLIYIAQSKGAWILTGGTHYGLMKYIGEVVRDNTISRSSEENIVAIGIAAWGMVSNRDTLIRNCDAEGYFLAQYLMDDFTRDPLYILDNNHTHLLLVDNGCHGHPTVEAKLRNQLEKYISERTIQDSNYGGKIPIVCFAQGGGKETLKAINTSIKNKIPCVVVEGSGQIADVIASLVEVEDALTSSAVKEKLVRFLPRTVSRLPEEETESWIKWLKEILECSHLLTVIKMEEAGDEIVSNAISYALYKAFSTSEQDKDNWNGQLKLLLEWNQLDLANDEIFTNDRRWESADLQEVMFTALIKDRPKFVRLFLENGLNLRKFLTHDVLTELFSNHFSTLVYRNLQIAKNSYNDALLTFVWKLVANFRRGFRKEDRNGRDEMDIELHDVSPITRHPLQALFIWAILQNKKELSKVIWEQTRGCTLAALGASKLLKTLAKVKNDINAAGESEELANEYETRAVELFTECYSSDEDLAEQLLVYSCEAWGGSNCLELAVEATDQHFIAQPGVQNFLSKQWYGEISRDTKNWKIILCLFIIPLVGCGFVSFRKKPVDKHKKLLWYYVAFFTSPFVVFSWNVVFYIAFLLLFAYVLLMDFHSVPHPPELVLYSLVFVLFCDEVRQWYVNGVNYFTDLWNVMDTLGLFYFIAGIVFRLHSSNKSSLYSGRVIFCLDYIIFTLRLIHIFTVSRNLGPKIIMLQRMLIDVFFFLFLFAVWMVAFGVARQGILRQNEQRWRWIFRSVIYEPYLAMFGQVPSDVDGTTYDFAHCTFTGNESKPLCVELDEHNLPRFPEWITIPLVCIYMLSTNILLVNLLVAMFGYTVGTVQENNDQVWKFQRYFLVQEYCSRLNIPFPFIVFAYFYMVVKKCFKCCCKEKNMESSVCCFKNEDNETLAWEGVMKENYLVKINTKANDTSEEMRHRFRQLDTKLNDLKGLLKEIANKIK

[2] = target: T1, recombinant human TRPM8 stably expressed in HEK293 cells (hTRPM8); test: as above; assay type: cell-based; details: for Activity (agonist/antagonist): agonism = compound-induced Ca2+ influx, antagonism = modulation of WS-12-induced Ca2+ influx; for Hill coefficient: hTRPM8-HEK293 Ca2+ microfluorimetry dose-response; for EC50: half of channel activation
Description: We first evaluated the series of compounds 20–29 synthesized using the Passerini‐Adamantane reaction. All compounds were screened for channel agonism and antagonism on recombinant human TRPM8 stably expressed in HEK293 cells (hTRPM8‐HEK293) with Ca^2+ microfluorimetry. […] Compound‐induced TRPM8‐mediated Ca^2+ influx was confirmed using untransfected HEK293 cells and the channel blocker AMTB. […] The concentration of compounds to reach half of channel activation (EC50) or to block half‐channel activity evoked by WS‐12 (IC50) are reported in Table 1, along with the percentage of maximal activation or blockade (Efficacy).
Assays were conducted to assess the channel activity of the recombinant hTRPM8 stably expressed in HEK‐293 cells. HEK‐293‐hTRPM8 cells were cultured in a monolayer using a DMEM GlutaMax with 10% FBS and 1% P/S and maintained at 37 °C in 5% CO2. For experiments, cells were prepared and seeded at the indicated densities. To evaluate compound effectiveness against hTRPM8 activity, microfluorometry‐based calcium flux assays were performed using Fluo‐4 NW Ca^2+ dye and fluorescence detection. HEK cell lines expressing hTRPM8 were seeded in 96‐well plates and incubated with the dye‐loading solution. Ion channel activity was measured using a plate reader, and fluorescence intensity changes were recorded following the addition of vehicle, compound at varying concentrations, and antagonist (10 μM AMTB). Data analysis included calculating the Z‐factor for each assay and normalizing compound effects to […]. Data were analyzed to determine the concentration exerting half‐maximal inhibition (IC50) or activation (EC50) of agonist‐induced calcium elevation, using GRAPHPAD PRISM8® software (Boston, MA, USA). All experiments were conducted in triplicate, and results are presented as mean ± standard deviation.

[3] = hTRPM8-HEK293, block of half channel activity evoked by WS-12, mean ± SD, N = 3, read-out: IC50
[4] = hTRPM8-HEK293, mean ± SD, N = 3

SMILES	Emax [1] [%]	Activity (agonist/antagonist) ([2]; hTRPM8-HEK293)	IC50 [2, 3] [nM]	Hill coefficient ([2]; mean ± SD)	IC50 [2] [nM]	EC50 [2, 4] [nM]
O=C(COC(=O)c1ccccc1)NC12CC3CC(CC(C3)C1)C2 [Compound 20, 2‐((3S,5S,7S)‐adamantan‐1‐ylamino)‐2‐oxoethyl benzoate]	60	Antagonist	1800 ± 1100	0.4 ± 1.2	–	–
O=C(COC(=O)Cc1ccccc1)NC12CC3CC(CC(C3)C1)C2 [Compound 21, 2‐((3S,5S,7S)‐adamantan‐1‐ylamino)‐2‐oxoethyl 2‐phenylacetate]	44	Antagonist	–	0.5 ± 2.3	1500 ± 1100	–
CC(=O)OCC(=O)NC12CC3CC(CC(C3)C1)C2 [Compound 22, 2‐((3S,5S,7S)‐adamantan‐1‐ylamino)‐2‐oxoethyl acetate]	64	agonistic activity; also recorded: Agonist	–	0.4 ± 1.3	–	1100 ± 1500
CCCC(=O)OCC(=O)NC12CC3CC(CC(C3)C1)C2 [Compound 24, 2‐((3S,5S,7S)‐adamantan‐1‐ylamino)‐2‐oxoethyl butyrate]	19	agonistic activity; also recorded: Agonist	–	0.6 ± 0.2	–	19000 ± 2000
O=C(COC(=O)C1CCCC1)NC12CC3CC(CC(C3)C1)C2 [Compound 25, 2‐((3S,5S,7S)‐adamantan‐1‐ylamino)‐2‐oxoethyl cyclopentane carboxylate]	57	Antagonist	45000 ± 2000	0.8 ± 3.0	–	–
O=C(COC(=O)c1cccnc1)NC12CC3CC(CC(C3)C1)C2 [Compound 26, 2‐((3S,5S,7S)‐adamantan‐1‐ylamino)‐2‐oxoethyl nicotinate]	72	agonist activity	–	0.4 ± 6.4	–	1900 ± 1600
CC(=O)NCCCC(=O)OCC(=O)NC12CC3CC(CC(C3)C1)C2 [Compound 27, 2‐((3S,5S,7S)‐adamantan‐1‐ylamino)‐2‐oxoethyl 4‐acetamidobutanoate]	60	agonistic activity; also recorded: Agonist	–	0.3 ± 1.6	–	600 ± 1200
O=C(COC(=O)c1ccc(Cl)cc1)NC12CC3CC(CC(C3)C1)C2 [Compound 28, 2‐((3S,5S,7S)‐adamantan‐1‐ylamino)‐2‐oxoethyl 4‐chlorobenzoate]	87	agonist activity	–	0.1 ± 0.2	–	1200 ± 1200
O=C(COC(=O)c1cccc([N+](=O)[O-])c1)NC12CC3CC(CC(C3)C1)C2 [Compound 29, 2‐((3S,5S,7S)‐adamantan‐1‐ylamino)‐2‐oxoethyl 3‐nitrobenzoate]	69	Antagonist	2300 ± 1100	0.5 ± 3.0	–	–
O=C(CN(C(=O)c1ccccc1)C1CC1)NC12CC3CC(CC(C3)C1)C2 [Compound 30, N‐(2‐(((3S,5S,7S)‐adamantan‐1‐yl)amino)‐2‐oxoethyl)‐N‐cyclopropylbenzamide]	92	Agonist	–	0.7 ± 1.6	–	1500 ± 1500
CCCC(=O)N(CC(=O)NC12CC3CC(CC(C3)C1)C2)C1CC1 [Compound 31, N‐(2‐(((3S,5S,7S)‐adamantan‐1‐yl)amino)‐2‐oxoethyl)‐N‐cyclopropylbutyramide]	72	Agonist	–	0.7 ± 2.5	–	300
O=C(CN(C(=O)C1CCCC1)C1CC1)NC12CC3CC(CC(C3)C1)C2 [Compound 32, N‐(2‐(((3S,5S,7S)‐adamantan‐1‐yl)amino)‐2‐oxoethyl)‐N‐cyclopropylcyclopentanecarboxamide]	56	potent hTRPM8 agonist	–	0.2 ± 1.5	–	400
O=C(CN(C(=O)c1ccccc1-c1ccccc1)C1CC1)NC12CC3CC(CC(C3)C1)C2 [Compound 33, N‐(2‐(((3S,5S,7S)‐adamantan‐1‐yl)amino)‐2‐oxoethyl)‐N‐cyclopropyl‐[1,1′‐biphenyl]‐2‐carboxamide]	48	moderate antagonistic activity; also recorded: Antagonist	1100 ± 1200	2.0 ± 7.8	–	–
CC(=O)N(CC(=O)NC12CC3CC(CC(C3)C1)C2)C1CC1 [Compound 34, N‐((3S,5S,7S)‐adamantan‐1‐yl)‐2‐(N‐cyclopropylacetamido)acetamide]	54	Agonist	–	0.3 ± 14	–	200
O=C(CN(C(=O)c1cc2ccccc2s1)C1CC1)NC12CC3CC(CC(C3)C1)C2 [Compound 35, N‐(2‐(((3S,5S,7S)‐adamantan‐1‐yl)amino)‐2‐oxoethyl)‐N‐cyclopropylbenzo[b]thiophene‐2‐carboxamide]	40	moderate antagonistic activity; also recorded: Antagonist	600 ± 1200	2.0 ± 4.3	–	–
O=C(CN(C(=O)Cc1ccccc1)C1CC1)NC12CC3CC(CC(C3)C1)C2 [Compound 36, N‐(2‐(((3S,5S,7S)‐adamantan‐1‐yl)amino)‐2‐oxoethyl)‐N‐cyclopropyl‐2‐phenylacetamide]	47	Agonist	–	2.3 ± 2.6	–	4900 ± 1700
CC(=O)N(CC(=O)NC12CC3CC(CC(C3)C1)C2)C1CCCCC1 [Compound 37, N‐((3S,5S,7S)‐adamantan‐1‐yl)‐2‐(N‐cyclohexylacetamido)acetamide]	48	Agonist	–	0.9 ± 9.2	–	200
CC(=O)N(CC(=O)NC12CC3CC(CC(C3)C1)C2)C12CC3CC(CC(C3)C1)C2 [Compound 38, N‐((3S,5S,7S)‐adamantan‐1‐yl)‐2‐(N‐((3S,5S,7S)‐adamantan‐1‐yl)acetamido)acetamide]	65	Agonist	–	0.3 ± 3.6	–	2000 ± 1400
CCCCN(CC(=O)NC12CC3CC(CC(C3)C1)C2)C(C)=O [Compound 39, N‐((3S,5S,7S)‐adamantan‐1‐yl)‐2‐(N‐butylacetamido)acetamide]	64	Agonist	–	0.4 ± 9.1	–	500 ± 1400
CC(=O)N(CC(=O)NC12CC3CC(CC(C3)C1)C2)Cc1ccccc1 [Compound 40, N‐((3S,5S,7S)‐adamantan‐1‐yl)‐2‐(N‐benzylacetamido)acetamide]	86	Agonist	–	0.7 ± 2.4	–	1400 ± 1400
O=C(CN(Cc1ccccc1)C(=O)Cc1ccccc1)NC12CC3CC(CC(C3)C1)C2 [Compound 41, N‐(2‐(((3S,5S,7S)‐adamantan‐1‐yl)amino)‐2‐oxoethyl)‐N‐benzyl‐2‐phenylacetamide]	49	Agonist	–	2.1 ± 1.0	–	900 ± 1100
O=C(CN1CCN(C(=O)c2ccccc2)CC1)NC12CC3CC(CC(C3)C1)C2 [Compound 42, N‐((3S,5S,7S)‐adamantan‐1‐yl)‐2‐(4‐benzoylpiperazin‐1‐yl)acetamide]	73	Agonist	–	0.4 ± 4.3	–	5400 ± 1500
